Regarding `CS(=O)(=O)C(Cc1ccccc1)C(=O)O` (configuration not stated), the melting point was 116 to 118 °C.
In the case of `CC(=O)Nc1ccc(C2NC(=O)NC2=O)cc1` (configuration not stated) it was 314 to 316 °C; in that of `N#CCCN(C(=O)CCC(=O)O)c1ccccc1`, 98 to 100 °C.
`NNC(=O)CCc1ccccc1`: the melting point was 99 to 101 °C.
With `O=c1oc2ccccc2o1`, the melting point was 116 to 118 °C.
With `CCOC(=O)/C(C#N)=C\Nc1cc(C)ccc1OC`, the melting point lay within 131 to 133 °C.
In the case of `O=C(O)C=CC(=O)NCc1ccncc1` it was 139 to 141 °C; in that of `NCc1cccc(CN2CCCC(C(N)=O)C2)c1` (configuration not stated), 104 to 106 °C.
In the case of `CN(c1ccc(-c2csc(N)n2)cc1)S(C)(=O)=O` it was 205 to 207 °C; in that of `c1cc(OCC2CO2)c2cc[nH]c2c1` (configuration not stated), 52 to 54 °C.
In the case of `Cc1cc(N)n(C2CC3CCC2C3)n1` (configuration not stated) it was 59 to 61 °C; in that of `CC(=O)c1ccc(NS(=O)(=O)c2ccc(C)cc2)cc1`, 170 to 172 °C.
In the case of `Cn1nnc(C(=O)O)c1C(F)(F)F`, the melting point was in the range of 114 to 116 °C.
In the case of `O=C(O)c1c[nH]nc1-c1ccc(F)cc1` it was 302 to 304 °C; in that of `O=S(=O)(c1ccc(C(F)(F)F)cc1)N1CCNCC1`, 163 to 169 °C; in that of `CCCOc1ccc(C=CC(=O)O)cc1OC`, 187 to 189 °C.
In the case of `Nc1cc(Br)c[nH]c1=S` it was 190 to 192 °C; in that of `Cc1cc(Br)cc2c1NC(=O)C2`, 224 to 226 °C.
In the case of `O=c1ccc(-c2ccc3c(c2)OCCCO3)n[nH]1`, the melting point fell in the range of 199 to 201 °C.
In the case of `Fc1cccc(-c2noc(S)n2)c1` it was 93 to 95 °C.
In the case of `Cc1csc2nc(CO)cc(=O)n12` it was 154 to 156 °C; in that of `COc1ccc(C(=O)N2CCCC(C(=O)O)C2)c2ccccc12` (configuration not stated), 255 to 257 °C.
In the case of `Nc1nc(CCl)nc2oc(-c3ccccc3)c(-c3ccccc3)c12` it was 201 to 203 °C.
`O=C(O)Cc1csc(-c2ccccc2Cl)n1` returned a melting point of 105 to 109 °C.
`COc1ccccc1OCC(=O)NN` showed a melting point of 101 to 103 °C.
In the case of `O=C(O)COc1ccccc1C(F)(F)F` it was 151 to 153 °C; in that of `Cc1nn(C)c(Cl)c1Cn1cc(Br)cn1`, 52 to 54 °C; in that of `O=C(O)c1ccc(S(=O)(=O)Nc2ccccc2F)cc1`, 266 to 268 °C.
In the case of `CC1CCC(NS(=O)(=O)CC(=O)O)CC1` (configuration not stated) it was 116 to 118 °C.
In the case of `N#Cc1nc(N)[nH]c1C#N` it was 270 to 272 °C.
`Cc1ccccc1C(N)CO` (configuration not stated) had a melting point of 99 to 101 °C.
Turning to `O=C1NCCCC1C(F)(F)F` (configuration not stated), the melting point was in the range of 99 to 101 °C.
In the case of `O=C(O)c1ccccc1Nc1ccc(OC(F)F)cc1` it was 153 to 155 °C.
In the case of `NC(=O)Nc1ccc(Br)cc1C(=O)O` it was 171 to 173 °C; in that of `N#CCc1ccc2ccccc2n1`, 45 to 47 °C; in that of `Cc1cc(C(=O)O)c(C)n1Cc1ccco1`, 170 to 172 °C.
In the case of `O=C(O)c1csc(-c2cnn(-c3ccccc3)c2)n1` it was 202 to 204 °C; in that of `CCN(CC)c1ccc(NC(=O)CCl)cc1`, 141 to 143 °C.
As for `C/C(=N\O)c1ccc(-c2ccc(F)cc2)s1`, the melting point was in the range of 139 to 141 °C.
In turn, `Cc1cc2ccccc2nc1Br` gave a melting point of 94 to 96 °C.
With `CC1CNc2ccccc2CN1C(=O)OC(C)(C)C` (configuration not stated), the melting point lay in the range of 158 to 160 °C.
In the case of `CC(CS(=O)(=O)c1ccc(F)cc1)C(=O)O` (configuration not stated) it was 128 to 130 °C; in that of `COC(=O)C(=O)CC(=O)c1ccc(F)cc1`, 125 to 135 °C; in that of `COc1cccc(C(C=O)C=O)c1`, 62 to 64 °C.
With `CC(Oc1cccnc1)C(=O)O` (configuration not stated), the melting point fell in the range of 126 to 128 °C.
In the case of `O=C1CC(C(=O)O)C1` it was 58 to 60 °C; in that of `COc1cc(NC(=O)OC(C)(C)C)c(Cl)cc1C(=O)O`, 155 to 157 °C; in that of `NC(=O)NC(C(=O)O)c1ccccc1` (configuration not stated), 201 to 203 °C.
In the case of `CSc1cc(C(=O)O)ccn1` it was 218 to 220 °C; in that of `Cc1noc(C)c1CNC(=O)CCl`, 79 to 81 °C; in that of `CCOC=C(C#N)C(=O)O`, 63 to 65 °C.
Molecule `COc1ccc(C(=O)O)cc1OCc1ccncc1` registered a melting point of 201 to 203 °C.
In the case of `COc1ccc(CCC(=O)O)cc1O` it was 149 to 151 °C.
In turn, `O=C(Nc1nc(C(F)(F)F)cs1)OCC(F)(F)F` came in with a melting point of 78 to 80 °C.
Turning to `O=C(O)c1cc2c(cc1Cl)N1CCCCCC1=NS2(=O)=O`, the melting point lay within 251 to 253 °C.
Molecule `CC1CCN(Cc2ccc(N)cc2)CC1` returned a melting point of 61 to 63 °C.
In the case of `CCCS(=O)(=O)N1CCCCC1C(=O)O` (configuration not stated) it was 84 to 86 °C.
`Ic1ccc2ncccc2c1` yielded a melting point of 86 to 88 °C.
In the case of `COCCNS(=O)(=O)c1ccc(C#N)cc1` it was 88 to 90 °C; in that of `O=C(CCl)c1c(-c2ccc(F)cc2)[nH]c2ccccc12`, 158 to 160 °C.
In the case of `CC(C)CC(CCC(=O)O)C(=O)O` (configuration not stated) it was 66 to 68 °C; in that of `O=C(Nc1cccc(Cl)c1)c1ccc(Cl)nc1`, 177 to 179 °C.

One may read the melting point as the temperature of the solid-liquid transition.

The values are drawn from a melting point compilation (Tetko et al.).
